# Key:
# [1] = molecular target: T1, MARK3 (Homo sapiens, UniProt P27448); assay: MARK 3 Assay (HTRF, Cdc25C biotinylated peptide substrate); format: biochemical; settings: 10 μM ATP, 10 nM recombinant MARK3 enzyme
# T1 construct: purchased University of Dundee
# Protocol: MARK3 activity was assayed in vitro using a Cdc25C biotinylated peptide substrate (Cell Signalling Technologies). The phosphopeptide product was quantitated using a Homogenous Time-Resolved Fluorescence (HTRF) assay system (Park et al., 1999, Anal. Biochem. 269:94-104). The reaction mixture contained 50 mM HEPES/Tris-HCl, pH 7.4; 10 mM NaCl, 5 mM MgCl2, 0.2 mM NaVO4, 5 mM β-glycerol phosphate, 0.1% Tween-20, 2 mM dithiothreitol, 0.1% BSA, 10 μM ATP, 1 μM peptide substrate, and 10 nM recombinant MARK3 enzyme (University of Dundee) in a final volume of 12 μL. The buffer additionally contained protease inhibitor cocktail (Roche EDTA-free, 1 tab per 50 ml). The kinase reaction was incubated for 2 hours at 25° C., and then terminated with 3 μl Stop/Detection Buffer (50 mM HEPES, pH 7.0, 16.6 mM EDTA, 0.5M KF, 0.1% Tween-20, 0.1% BSA, 2 μg/ml SLX^ent 665 (CISBIO), and 2 μg/mL Eu^3+ cryptate label antibody (CISBIO)). The reaction was allowed to equilibrate overnight at 0° C., and relative fluorescent units were read on an HTRF enabled plate reader (e.g. TECAN GENios Pro).
# Inhibitor compounds were assayed in the reaction described above to determine compound IC50s. Aliquots of compound dissolved in DMSO were added to the reaction wells in a third-log dilution series covering a range of 1 nM to 10 μM. Relative phospho substrate formation, read as HTRF fluorescence units, was measured over the range of compound concentrations and a titration curve generated.
# [2] = Mean Arterial Pressure in anesthetized dogs; format: in vivo
# Source text: The compounds of Formula I disclosed herein are also useful as blood pressure lowering agents and thus useful for the treating hypertension. Arterial hypertension has been identified as a strong causal factor in cardiovascular disease. An embodiment of the invention encompasses a method for treating or preventing cardiovascular disease comprising administering to a patient in need thereof a compound of Formula I, either as a single agent or in combination with other standard of care agents. It is postulated that compounds of the invention lower blood pressure by interfering with binding of tau and other microtubule associated proteins (MAP) to microtubules. Inhibiting the depolymerization of tubulin is the proposed cause of vasorelaxation leading to blood pressure lowering. […] Example 4 disclosed herein lowered Mean Arterial Pressure by 25% when it was dosed at 5 mg/kg cumulatively over the course of 90 minutes in anesthetized dogs. Example 9 disclosed herein lowered Mean Arterial Pressure by 89% when it was dosed at 10 mg/kg cumulatively over the course of 90 minutes in anesthetized dogs.
# T1 sequence (P27448 whole entry, species assumed): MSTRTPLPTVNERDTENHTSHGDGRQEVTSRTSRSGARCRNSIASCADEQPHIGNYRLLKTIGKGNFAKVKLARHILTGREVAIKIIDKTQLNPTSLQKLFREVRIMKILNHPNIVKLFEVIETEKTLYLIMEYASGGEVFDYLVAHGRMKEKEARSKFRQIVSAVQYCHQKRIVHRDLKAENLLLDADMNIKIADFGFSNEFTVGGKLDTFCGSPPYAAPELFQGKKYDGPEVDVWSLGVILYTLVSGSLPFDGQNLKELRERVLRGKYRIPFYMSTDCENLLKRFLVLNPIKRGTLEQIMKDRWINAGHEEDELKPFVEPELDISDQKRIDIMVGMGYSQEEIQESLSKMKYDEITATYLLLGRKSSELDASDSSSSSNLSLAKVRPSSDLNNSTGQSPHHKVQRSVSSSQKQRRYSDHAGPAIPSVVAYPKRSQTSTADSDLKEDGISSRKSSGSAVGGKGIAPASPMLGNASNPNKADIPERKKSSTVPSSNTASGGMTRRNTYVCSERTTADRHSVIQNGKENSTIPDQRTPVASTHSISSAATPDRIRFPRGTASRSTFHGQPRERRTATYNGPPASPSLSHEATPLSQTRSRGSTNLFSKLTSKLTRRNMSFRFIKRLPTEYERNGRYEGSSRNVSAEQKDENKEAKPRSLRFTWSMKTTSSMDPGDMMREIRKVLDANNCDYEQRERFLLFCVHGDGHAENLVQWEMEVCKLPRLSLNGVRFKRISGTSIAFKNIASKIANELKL
Structure (SMILES),IC50 [1],lowered Mean Arterial Pressure ([2]; 5 mg/kg cumulatively over the course of 90 minutes),lowered Mean Arterial Pressure ([2]; 10 mg/kg cumulatively over the course of 90 minutes)
"CCc1sc(C(=O)N[C@@H]2[C@@H](N)CCCC2(F)F)cc1-c1cnn2cc(Cl)cnc12 [Example 4, N-[(1R,6S)-6-Amino-2,2-difluorocyclohexyl]-4-(6-chloropyrazolo[1,5-a]pyrimidin-3-yl)-5-ethylthiophene-2-carboxamide]",27 nM,25%,
"Cc1sc(C(=O)N[C@@H]2[C@H](N)CCCC2(F)F)cc1-c1cnn2cc(OC(F)F)cnc12 [Example 9, N-[(1R,6R)-6-Amino-2,2-difluorocyclohexyl]-4-[6-(difluoromethoxy)pyrazolo[1,5-a]pyrimidin-3-yl]-5-methylthiophene-2-carboxamide]",3 nM,,89%
"CCc1sc(C(=O)N[C@@H]2[C@@H](N)CCCC2(F)F)cc1-c1cnn2cc(C(F)(F)F)cnc12 [Example 6, N-[(1R,6S)-6-Amino-2,2-difluorocyclohexyl]-5-ethyl-4-[6-(trifluoromethyl)pyrazolo[1,5-a]pyrimindin-3-yl]thiophene-2-carboxamide]",73 nM,,
Cc1sc(C(=O)N[C@@H]2CCCC[C@@H]2N)cc1-c1cnn2cc(-c3cnn(C)c3)cnc12 [reference compound],1 nM,,
"Cc1sc(C(=O)N[C@@H]2[C@@H](N)CCCC2(F)F)cc1-c1cnn2cc(OC(F)F)cnc12 [Example 10, N-[(1R,6S)-6-amino-2,2-difluorocyclohexyl]-4-[6-(difluoromethoxy)pyrazolo[1,5-a]pyrimidin-3-yl]-5-methylthiophene-2-carboxamide]",5 nM,,
"CCOc1cnc2c(-c3cc(C(=O)N[C@@H]4[C@H](N)CCCC4(F)F)sc3CC)cnn2c1 [Example 15, N-[(1R,6R)-6-amino-2,2-difluorocyclohexyl]-4-(6-ethoxypyrazolo[1,5-a]pyrimidin-3-yl)-5-ethylthiophene-2-carboxamide]",2 nM,,
